Experimental data taken from article PMC8791944, “GLUT3 inhibitor discovery through in silico ligand screening and in vivo validation in eukaryotic expression systems” (Scientific Reports, 2022).

These compounds were tested against T1, GLUT3 (Homo sapiens, UniProt P11169) (assay: Glucose transport assay, wild-type GLUT3 expressed in hxt^0 yeast cells EBY.S7 (C^14-glucose uptake)). Conditions: wild-type GLUT3 in hxt^0 yeast cells, 3 mM glucose, uptake 10 min; read-out: IC50 for GLUT3 transport inhibition.
T1 construct: expressed in transfected cells; host or cells: Saccharomyces cerevisiae hxt0 strain EBY.S7 (fgy1)
T1 sequence (P11169 1-496): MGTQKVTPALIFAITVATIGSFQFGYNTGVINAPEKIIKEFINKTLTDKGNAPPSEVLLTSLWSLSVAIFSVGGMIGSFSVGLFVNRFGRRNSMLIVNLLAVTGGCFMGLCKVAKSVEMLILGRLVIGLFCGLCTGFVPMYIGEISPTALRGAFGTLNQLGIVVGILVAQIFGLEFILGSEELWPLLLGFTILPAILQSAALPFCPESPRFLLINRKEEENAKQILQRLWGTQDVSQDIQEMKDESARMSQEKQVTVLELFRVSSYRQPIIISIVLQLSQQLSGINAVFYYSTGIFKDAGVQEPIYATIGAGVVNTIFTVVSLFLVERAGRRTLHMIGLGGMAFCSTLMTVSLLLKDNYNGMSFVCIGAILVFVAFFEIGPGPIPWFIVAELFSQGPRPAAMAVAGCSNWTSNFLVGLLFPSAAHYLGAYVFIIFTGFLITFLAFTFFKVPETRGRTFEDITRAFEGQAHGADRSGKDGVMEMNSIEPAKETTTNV
Assay type: cell-based
From the text: To experimentally validate the ligand candidates determined by the virtual ligand screening, we tested their effect on GLUT3 transport activity. For this, we used the recently established assay system[67] in which GLUT3 is expressed in a yeast strain devoid of endogenous hexose transporters (hxt^0) so that glucose uptake into cells relies solely on the activity of GLUT3.
We determined GLUT3 transport activity by measuring the accumulation of radioactive glucose inside whole hxt^0 yeast cells (see “Materials and methods” for details). To select an appropriate substrate concentration for transport inhibition screening, we assessed the KM of glucose for GLUT3 in hxt^0 cells. […] Indeed, functional expression of human GLUTs in hxt^0 cells often requires mutations in genes related to yeast lipid composition[65],[73] as well as single-site mutations that may favor the outward-facing conformation of the transporters[65]–[67].
Hexose transporter deficient yeast strains (hxt^0) EBY.VW4000 for expression of GLUT5, EBY.S7 (carrying the fgy1 mutation) for expression of GLUT1-3, and SDY.022 (EBY.S7 Δerg4) for expression of GLUT4 cells, and corresponding plasmids[65],[66],[73] were from the labs of Drs. Eckhard Boles and Mislav Oreb (Goethe University, Germany). Media ingredients and buffer components were from VWR or Millipore Sigma. Commercial providers for chemicals tested for GLUT3 inhibition are listed in Supplementary Table S1. C^14-glucose was from Moravek Inc (Brea, CA, USA). Cancer cell lines were from ATCC (https://www.atcc.org).
The plasmids containing functional constructs of GLUT1-5 were transformed in the corresponding hxt^0 strains[65],[66],[73] (EBY.VW4000 for GLUT5S72Y, EBY.S7 for GLUT1, GLUT2∆loopS_Q455R, GLUT3 and GLUT3S66Y, and SDY.022 for GLUT4) and grown on 2% (w/v) agar plates of the respective media supplemented with 1% (w/v) maltose. An initial culture of ~ 10 ml was started with a few colonies and grown for 2–3 days if the media was SC-uracil with 1% (w/v) maltose (GLUT1, GLUT3, GLUT4) or 1–2 days if the media was YEP with 1% (w/v) maltose and 100 µg/ml geneticin G418 (GLUT2∆loopS_Q455R and GLUT5S72Y). Cells were washed once in the corresponding media in which maltose was substituted with 0.1–2% hexose substrate for the expressing GLUT (i.e., SC-uracil, 2% (w/v) glucose for GLUT1; SC-uracil, 0.2% (w/v/) glucose for GLUT3 and GLUT4; YEP, 0.2% (w/v) glucose, 100 µg/ml geneticin G418 for GLUT2∆loopS_Q455R, and YEP, 2% (w/v) fructose for GLUT5 S72Y). Then, cells were transferred in the same media so that OD600nm ~ 0.5 and grown further for 1–2 days.
For transport activity assay, cells in the hexose media were centrifuged (1000×g, 5 min, room temperature), washed once with PBS buffer (10 mM Na2HPO4, 1.8 mM KH2PO4, 2.7 mM KCl, 137 mM NaCl, pH 7.4), and resuspended in PBS buffer at an OD600nm ~ 10; each assay contained 100 µl of this cell solution. Transport activity assay was started by adding C^14-hexose at a substrate concentration corresponding to the respective KM (5 mM glucose for GLUT1 or GLUT4, 3 mM glucose for GLUT3 or 1.5 mM glucose for GLUT3S66Y, 15 mM glucose for GLUT2∆loopS_Q455R, and 10 mM fructose for GLUT5S72Y); for determining the glucose KM in GLUT3 and GLUT3S66Y, substrate concentrations were varied accordingly. […] The filtration membranes were transferred into scintillation vials with 10 ml of Scintillation Solution (BioSafeII; Research Products International, Mount Prospect, IL, USA), and vortexed briefly. The radioactivity was determined with a scintillation counter (Tri-carb 2900TR, Perkin Elmer, USA).

Row | Compound | IC50 [µM]
1 | CC(=O)Nc1ccc(S(=O)(=O)Nc2ccc(Nc3cc(N(C)C)nc(C)n3)cc2)cc1 [G3iA, N-(4-{[(4-{[6-(dimethylamino)-2-methylpyrimidin-4-yl]amino}phenyl)amino]sulfonyl}phenyl)acetamide] | 7.01 ± 1.02
2 | COc1ccccc1-n1c(/C=C/c2ccc(O)cc2)nc2ccc(Br)cc2c1=O [G3iB, 6-bromo-2-[(E)-2-(4-hydroxyphenyl)ethenyl]-3-(2-methoxyphenyl)quinazolin-4(3H)-one] | 12.2 ± 4
3 | Cc1cccnc1OC1CCN(c2cc(N3CCCC3CO)ncn2)CC1 (stereo not drawn) [G3iC] | 12.5 ± 4.4
4 | Cc1cc(NC(=O)CCC2Cc3ccccc3NC2=O)nc(-c2ccccc2)n1 (stereo not drawn) [G3iD] | 19.3 ± 4.7
5 | O=C(Nc1cccc(Cl)c1)c1cccc(NC(=O)c2cccc([N+](=O)[O-])c2)c1 [G3iE, N-{3-[(3-chloroanilino)carbonyl]phenyl}-3-nitrobenzamide] | 23.6 ± 1.9
6 | Cc1ccccc1CN(Cc1nnc(C(C)(C)C)o1)c1ccc2nc(O)[nH]c2c1 [G3iF] | 38.4 ± 11.8
